Laboratory results published in patent US20230257415A1, “COMPOUNDS FOR TREATING CNS DISORDERS” (SAGE THERAPEUTICS, INC., priority 2019, published 2023).
pIC50: −log10 of the molar value.

Target: GABAA receptor
Experiment: [35S]-TBPS binding assay, rat brain cortical membranes, in the presence of GABA
Conditions: inhibition of 3 nM [35S]-TBPS binding, 5 mM GABA, 90 min, room temp
Method: [35S]-t-Butylbicyclophosphorothionate (TBPS) binding assays using rat brain cortical membranes in the presence of 5 mM GABA has been described (Gee et al, J. Pharmacol. Exp. Ther. 1987, 241, 346-353; Hawkinson et al, Mol. Pharmacol. 1994, 46, 977-985; Lewin, A.H et al., Mol. Pharmacol. 1989, 35, 189-194).
Briefly, cortices are rapidly removed following decapitation of carbon dioxide-anesthetized Sprague-Dawley rats (200-250 g). The cortices are homogenized in 10 volumes of ice-cold 0.32 M sucrose using a glass/teflon homogenizer and centrifuged at 1500 x g for 10 min at 4° C. The resultant supernatants are centrifuged at 10,000 x g for 20 min at 4° C. to obtain the P2 pellets. The P2 pellets are resuspended in 200 mM NaCl/50 mM Na-K phosphate pH 7.4 buffer and centrifuged at 10,000 x g for 10 min at 4° C. This washing procedure is repeated twice and the pellets are resuspended in 10 volumes of buffer. Aliquots ([…]) of the membrane suspensions are incubated with 3 nM [^35S]-TBPS and […] aliquots of test drug dissolved in dimethyl sulfoxide (DMSO) (final 0.5%) in the presence of 5 mM GABA. The incubation is brought to a final volume of 1.0 mL with buffer. […] Following a 90 min incubation at room temp, the assays are terminated by filtration through glass fiber filters (Schleicher and Schuell No. 32) using a cell harvester (Brandel) and rinsed three times with ice-cold buffer. Filter bound radioactivity is measured by liquid scintillation spectrometry. Non-linear curve fitting of the overall data for each drug averaged for each concentration is done using Prism (GraphPad). […] The concentration of test compound producing 50% inhibition (IC50) of specific binding and the maximal extent of inhibition (Imax) are determined for the individual experiments with the same model used for the overall data and then the means ± SEM.s of the individual experiments are calculated.
Various compounds are or can be screened to determine their potential as modulators of [^35S]-TBPS binding in vitro. These assays are or can be performed in accordance with the above.

SMILES | pIC50
C[C@@H](Nc1ccc(C#N)cc1)[C@H]1CCC[C@H]2[C@@H]3CC[C@@H]4C[C@](C)(O)CC[C@@H]4C3CC[C@]12C (stereo partly drawn) [Example 51, 4-(((1R)-1-((1S,4aS,4bR,6aR,8R,10aS,12aS)-8-hydroxy-8,12a-dimethyloctadecahydrochrysen-1-yl)ethyl)amino)benzonitrile] | > 7.00
CCOC[C@@]1(O)CC[C@@H]2C3CC[C@]4(C)[C@@H]([C@@H](C)NC(=O)c5ccc(F)cc5F)CCC[C@H]4[C@@H]3CC[C@@H]2C1 (stereo partly drawn) [Example 52, N-((1R)-1-((1S,4aS,4bR,6aR,8R,10aS,12aS)-8-(ethoxymethyl)-8-hydroxy-12a-methyloctadecahydrochrysen-1-yl)ethyl)-2,4-difluorobenzamide] | 6.00 to 7.00
CCOC[C@@]1(O)CC[C@@H]2C3CC[C@]4(C)[C@@H]([C@H](C)NC(=O)c5ccc(F)cc5F)CCC[C@H]4[C@@H]3CC[C@@H]2C1 (stereo partly drawn) [Example 53, N-((1S)-1-((1S,4aS,4bR,6aR,8R,10aS,12aS)-8-(ethoxymethyl)-8-hydroxy-12a-methyloctadecahydrochrysen-1-yl)ethyl)-2,4-difluorobenzamide] | 6.00 to 7.00
CC[C@]12CC[C@H]3[C@@H](CC[C@@H]4C[C@](C)(O)CC[C@@H]43)[C@@H]1CCC[C@@H]2[C@H](C)NC(=O)c1ccc(C#N)cc1 [Example 54, 4-cyano-N-((S)-1-((1S,4aS,4bR,6aR,8R,10aS,10bR,12aS)-12a-ethyl-8-hydroxy-8-methyloctadecahydrochrysen-1-yl)ethyl)benzamide] | 6.00 to 7.00
CCOC[C@@]1(O)CC[C@@H]2C3CC[C@]4(C)[C@@H]([C@H](C)NC(=O)c5ccc(C#N)cc5F)CCC[C@H]4[C@@H]3CC[C@@H]2C1 (stereo partly drawn) [Example 55] | 6.00 to 7.00
CCOC[C@@]1(O)CC[C@@H]2C3CC[C@]4(C)[C@@H]([C@@H](C)NC(=O)c5ccc(C#N)cc5F)CCC[C@H]4[C@@H]3CC[C@@H]2C1 (stereo partly drawn) [Example 56] | 6.00 to 7.00
